Results taken from patent US10654838B2, “Aminopyridine compounds useful as inhibitors of protein prenylation” (INSTITUT NATIONAL DE LA SANTE ET DE LA RECHERCHE MEDICALE …, priority 2014, dated 2020).

Tests used:
[1] = tested on: HGPS MSCs; assay: Nuclear shape abnormalities (lamin A/C immunostaining); assay type: cell-based, human; conditions: 48 h, lamin A/C staining
Protocol: (§1) In the 4-steps protocol, cells were fixed in 4% paraformaldehyde (15 minutes, room temperature) before permeabilization and blocking in PBS supplemented with 0.1% triton X-100 and 1% BSA (Sigma-Aldrich, St. Louis, USA). Primary antibodies were incubated one hour at room temperature in blocking buffer. Antibodies included mouse anti-lamins A/C (clone JOL2, Millipore, Billerica, USA), rabbit anti-prelamin A (ANTOO45, Diatheva) and anti-Ki67 (clone Ki-S5, MAB4190, Millipore, Billerica, USA). Cells were stained with the species-specific fluorophore-conjugated secondary antibody (Invitrogen) (one hour, room temperature) and nuclei were visualized with Hoechst 33342.

[2] = tested on: HGPS MSCs; assay: Cell proliferation (Ki-67 immunostaining); assay type: cell-based, human; conditions: 48 h
Protocol: as §1

[3] = tested on: lamin A and progerin mRNA expression; assay: Quantitative PCR of lamin A and progerin mRNA; assay type: cell-based, human; conditions: HGPS MSCs, 48 h, normalized on DMSO 0.1%
Protocol: Total RNA was isolated using RNeasy Mini extraction kit (Qiagen, Courtaboeuf, France) according to the manufacturer's protocol. An on-col DNase I digestion was performed to avoid genomic DNA amplification. RNA level and quality were checked using the Nanodrop technology. A total of 500 ng of RNA was used for reverse transcription using the Superscript III reverse transcription kit (Invitrogen). Q-PCR analysis was performed using a ABI 7900 system (Applied biosystem) and TaqMan gene expression Master Mix (Roche) following the manufacturer's instructions. Quantification of gene expression was based on the DeltaCt Method and normalized on 18S expression (Assay HS_99999901_S1). PCR primers were previously described by S. Rodriguez and colleagues (Rodriguez S et al., 2009, Eur J Hum Genet, VOL 17(7): 928-37). Primer sequences were lamin A (exons 11/12), 5′-[…]-3′ (SEQ N^o 1) and 5′-AGTTCTGGGGGCTCTGGGT-3′ (SEQ N^o 2); lamin C (exons 9/10), 5′-[…]-3′ (SEQ N^o 3) and 5′-CGGCGGCTACCACTCAC-3′ (SEQ ID N^o 4) and Progerin
(exons 11/12), 5′-ACTGCAGCAGCTCGGGG-3′ (SEQ N^o 5) and 5′-TCTGGGGGCTCTGGGC-3′ (SEQ ID N^o 6).
Taqman MGB probe sequences were lamin A (exon 11), 5′-ACTCGCAGCTACCG-3′ (SEQ N^o 7); lamin C (exon10), 5′-ATGCGCAAGCTGGTG-3′ (SEQ ID N^o 8) and Progerin (exon 11), 5′-CGCTGAGTACAACCT-3′ (SEQ ID N^o 9). […]

[4] = tested on: HGPS MSCs; assay: ATP measurement (CellTiter Glo); assay type: cell-based, human; conditions: 48 h
Protocol: HGPS and control MSC were seeded in a 96 well plates (3917, Corning) (5000 cells/well) and treated with the different drugs. After 48 hours of treatment in unique dose, ATP content was measured using CellTiter Glo® (Promega) accordingly to the manufacturer recommendations. Luminescence was measured with an Analyst GT multimode plate reader (Molecular devices). In parallel, Hoechst 33342 stained nuclei were counted in each well thanks to an automated microscope. The results exploited are given in the ratio between ATP measurement and the number of nuclei counted.

[5] = tested on: prelamin A; assay: Western immunoblotting of prelamin A; assay type: cell-based, human; conditions: HGPS MSCs, optimal concentration
Protocol: Whole-cell lysates of MSC were collected, separated by SDS-PAGE, and transferred onto PVPF membrane by liquid transfer method. Blots were blocked in 10% skim milk (Bio-Rad) in tween 0.1% tris-buffered saline (TTBS) 1× one hour at room temperature. The primary antibodies used were a mouse anti-lamins A/C 1:200 (Millipore, JOL2), a rabbit anti-prelamin A 1/100 (ANTOO45, Diatheva) and a β-actin 1/200000 (Sigma). Membranes were incubated during the night at 4° C. Antigen-antibody binding was detected using horseradish peroxidaseconjugated species-specific secondary antibodies (GE-Healthcare, Little Chalfont, UK) followed by enhanced chemiluminescence Western blotting detection reagents (Perkin-Elmer, Waltham, USA).

[6] = tested on: HGPS MSCs; assay: Osteogenic differentiation (alkaline phosphatase activity); assay type: cell-based, human; conditions: 7 days of osteogenic differentiation
Protocol: MSC were seeded at 600 cells per well in 384 well plate in MSC culture medium and treated as previously described. After 72 hours, MSC medium was replaced by STEMPRO osteogenic induction medium (Invitrogen) in presence or not of the different drugs. After 7 days of treatment, cells were fixed with ethanol 95% and stained by adding either a colorimetric substrate of the alkaline phosphatase, the 5-Bromo-4-chloro-3-indolyl phosphate/Nitro blue tetrazolium (NBT) (Sigma-Aldrich) or a chromogenic substrate of this enzyme (absorbance at 405 nm), the p-Nitrophenyl Phosphate (pNPP) (Pierce Biotechnology).

[7] = tested on: HDJ2; assay: Western blot analysis of HDJ2 farnesylation; assay type: cell-based, human
[8] = molecular target: T1, HMGCR (Homo sapiens, UniProt P04035); assay: HMGCR colorimetric activity assay; assay type: biochemical
T1 construct: oxidation of NADPH by the catalytic subunit of HMGCR in the presence of the substrate HMG CoA; purchased Sigma-Aldrich
T1 sequence (P04035 340-888 limits assumed): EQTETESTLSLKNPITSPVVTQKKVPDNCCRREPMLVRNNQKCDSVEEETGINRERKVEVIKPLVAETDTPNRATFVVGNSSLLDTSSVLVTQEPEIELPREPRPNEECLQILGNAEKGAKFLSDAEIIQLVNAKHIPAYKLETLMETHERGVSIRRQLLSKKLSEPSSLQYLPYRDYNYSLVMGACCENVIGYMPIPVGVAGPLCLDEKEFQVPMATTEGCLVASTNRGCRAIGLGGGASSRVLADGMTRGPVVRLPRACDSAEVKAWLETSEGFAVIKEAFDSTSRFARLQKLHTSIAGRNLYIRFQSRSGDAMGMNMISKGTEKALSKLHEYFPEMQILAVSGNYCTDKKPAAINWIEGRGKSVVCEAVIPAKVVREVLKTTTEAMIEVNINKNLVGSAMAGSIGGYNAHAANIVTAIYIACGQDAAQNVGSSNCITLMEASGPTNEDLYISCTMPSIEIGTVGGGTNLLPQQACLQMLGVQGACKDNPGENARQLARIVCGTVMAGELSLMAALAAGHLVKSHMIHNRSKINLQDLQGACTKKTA
Protocol: HMGCR activity was measured using GCoA Reductase Assay Kit (Sigma-Aldrich) according to the manufacturer's protocol. The assay is based on the spectrophotometric measurement of the decrease in absorbance at 340 nm, which represents the oxidation of NADPH by the catalytic subunit of HMGCR in the presence of the substrate HMG CoA.

[9] = molecular target: T2, FT (Homo sapiens, UniProt P49354+P49356); assay: FT activity assay (Farnesyltransferase [3H] SPA); assay type: biochemical; conditions: concentration inducing 50% of the maximum inhibiting effect of the compound
T2 construct: Reactions were started by adding 40 μL of treated or untreated cell lysate; endogenous in cells; host or cells: HGPS MSCs (cell lysate)
Protocol: (§2) Cell pellet of HGPS MSCs were resuspended in 25 mM Tris-HCl pH 7.4, 1 mM DTT, 1 mM MgCl2, 1 EDTA, 1 mM PMSF and centrifuged at 10,000×g for 10 min at 4° C. Protein content was determined using Lowry's method. Aliquots of cell lysate containing 100 μg of total proteins were incubated with tested substances at 37° C. for 30 min.
FT activity was determined by Famesyltransferase [3H] SPA enzyme assay (Amersham Life Science, Buckinghamshire, England). Briefly, FT activity was assayed in 20 μl of assay buffer containing 50 mmol/L Hepes, 30 mmol/L MgCl2, 20 mmol/L KCl and 5 mmol/L dithiothreitol, 20 μl of [3H]-FPP (12 pmol) and 20 μl of biotin lamin B. Reactions were started by adding 40 μL of treated or untreated cell lysate and incubated for 1 hour at 37° C. Reactions were stopped by the addition of 150 μL of stop reagent containing SPA bead and counted in a scintillation counter. FT activity was expressed as pmoles of incorporated [3H]-FPP into biotin lamin-B peptide per minute per milligram of total proteins (pmol/min/mg prot). Parallel samples were assayed to evaluate the total and the nonspecific radioactivity. In all experiments enzyme assays were carried out in triplicate.

[10] = molecular target: T3, FPPS (Homo sapiens, UniProt P14324); assay: FPPS activity assay; assay type: biochemical; design: endogenous in cells; host or cells: HGPS MSCs (cell lysate); conditions: concentration inducing 50% of the maximum inhibiting effect of the compound
T3 sequence (P14324 1-419): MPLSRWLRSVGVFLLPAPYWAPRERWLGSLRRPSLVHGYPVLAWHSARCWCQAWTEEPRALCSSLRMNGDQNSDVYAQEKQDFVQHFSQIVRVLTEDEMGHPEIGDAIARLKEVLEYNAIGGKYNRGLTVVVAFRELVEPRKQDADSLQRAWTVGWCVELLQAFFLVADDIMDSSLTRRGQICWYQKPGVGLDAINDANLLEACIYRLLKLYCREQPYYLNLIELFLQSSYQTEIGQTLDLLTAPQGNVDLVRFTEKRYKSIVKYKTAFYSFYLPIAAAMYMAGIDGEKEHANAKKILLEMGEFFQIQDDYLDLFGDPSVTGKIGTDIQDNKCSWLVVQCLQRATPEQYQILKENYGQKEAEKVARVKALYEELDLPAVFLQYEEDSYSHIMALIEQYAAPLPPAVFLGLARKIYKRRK
Protocol: as §2
FPPS assay was carried out with some modifications of the procedure of Krisans et al. (Krisans et al., 1994, The Journal of biological chemistry VOL. 269: 14165-14169) and described by Gupta et al. (Gupta et al., 1999, Eur J Med Chem, VOL. 43: 2751-2767). Briefly, FPPS was assayed in 150 μL containing 25 mmol/L Hepes, pH=7, 2 mmol/L MgCl2, 1 mmol/L dithiothreitol, 5 mmol/L KF, 1% A noctyl-β-glucopyranoside, 3.3 μmol/L [4-14C] IPP (18 Ci/mmol), 3 μmol/L unlabeled IPP and 20 μmol/L geranyl diphosphate. Reactions were started by adding 40 μL of treated or untreated cell lysate and incubated for 45 min at 37° C. Reactions were stopped by the addition of 150 μL 2.5 mol/L HCl in 80% ethanol containing 100 μg/mL farnesol as a carrier. The samples were hydrolyzed for 30 min at 37° C. to convert the FPP to farnesol and neutralized by the addition of 150 μL of 10% NaOH. The reaction product (farnesol) was extracted into 1 mL of N-hexane and an aliquot (200 μL) of the organic phase was used for radioactivity counting. Parallel samples were assayed to evaluate the total and the nonspecific radioactivity. In all experiments, enzyme assays were carried out in triplicate.

[11] = molecular target: T3, FPPS; assay: Surface plasmon resonance on immobilized FPPS; assay type: binding
Protocol: Surface plasmon resonance (SPR) was measured using a BIAcore 3000 instrument at 25° C. FPPS (2800 RU) was immobilized on flow cells of a CM5-chip. The running buffer was HBSEP pH 7.4 (20 mM Hepes, 150 mM NaCl, and 0.005% P20). Regeneration was performed with 10 mM glycine, pH 3.0. […] Data were evaluated using Scrubber2 (Biologic software) and BIAeval software (BIAcore).

[12] = tested on: HGPS MSCs; assay: Live cell imaging (cell density); assay type: cell-based, human; conditions: 7 days
Protocol: HGPS MSCs were seeded at 2500 cells per well in 96-well plates and cultivated during 7 days in presence of the drugs. Cell density was monitored using an IncuCyte ZOOM microscope (Essen Bioscience). Each value corresponds to the mean of cell densities of four pictures taken in three independent wells.

Row | ATP content (energetic metabolism) [4] | IC50 (μM) HMGCR [8] | IC50 [9] [µM] | IC50 [10] [µM] | direct interaction with FPPS (SPR), in words [11] | Ka (1/M), association constant ([11]; SPR, BIAcore 3000, 25° C.) [M⁻¹] | Kd ([11]; SPR, BIAcore 3000, 25° C., read-out: Kd (M), equilibrium dissociation constant) [M] | Compound | rescue of nuclear shape abnormalities [1] | number of Ki-67 positive cells [2] | lamin A and progerin mRNA expression [3] | prelamin A level (Western blot) [5] | rescue of premature osteogenic differentiation (alkaline phosphatase activity) [6] | unfarnesylated form of HDJ2 [7] | cytostatic effect in long term live imaging cultures [12]
1 | increased ATP content | – | – | – | – | – | – | Cc1cccc(N(C)c2cc(N3CCN(C(=O)Cc4c(-c5ccccc5)[nH]c5ccccc45)CC3)ncn2)c1 [Di-AP1, 1-{4-[6-(Methyl-m-tolyl-amino)-pyrimidin-4-yl]-piperazin-1-yl}-2-(2-phenyl-1H-indol-3-yl)-ethanone] | not efficient | up to 65% | increased | increased | not significantly different to those observed following FTI treatment | increase of the unfarnesylated form of the protein | –
2 | – | No inhibition | 9.32 | 1.82 | confirmed the direct interactions | 5040 | 0.0002 | N#CC(c1ccncc1)c1cc(N2CCN(C(=O)c3cccs3)CC2)ncn1 (centres unmarked) [Mono-AP2, Pyridin-4-yl-{6-[4-(thiophene-2-carbonyl)-piperazin-1-yl]-pyrimidin-4-yl}-acetonitrile] | restoring HGPS MSCs nuclear shape defects at levels not significantly different from the FTI tipifarnib | – | – | increased | – | increase of the unfarnesylated form of the protein | less cytostatic than the FTI tipifarnib
